Assay results from patent US20230106719A1, “DISSOLVING AGENT” (NATIONAL UNIVERSITY CORPORATION HOKKAIDO UNIVERSITY, priority 2020, published 2023).
Values after ≈ are worked out from the molar mass of the structure shown.

Test: Drug solubility in coconut oil, CAOM and related dissolving agents
Assay type: physicochemical

## COc1cc(/C=C/C(=O)CC(=O)/C=C/c2ccc(O)c(OC)c2)ccc1O [curcumin]
In CAOM versus coconut oil
  solubility of curcumin in CAOM relative to coconut oil: 6 times
Oil or lipid, thermodynamic from solid, in coconut oil, room temperature, mean±SD n=3, read-out: solubility of curcumin in coconut oil
  solubility at 2 days: 2440 ± 240 µg/mL (≈ 6.62 mM)
